Source: the NIST ThermoML archive (doi:10.1021/je700438d)
Numbers after ± are expanded uncertainties.

Test: mn = molality of the nth substance listed, in mol/kg
Conditions: Liquid, Vibrating tube method

With `[Cl-].[Li+]` [lithium chloride] + CCO the mass density (298.15 K, 120 kPa, m1 = 2.88) was 865.97 ± 0.41 kg/m3, the mass density (298.15 K, 180 kPa, m1 = 0.3023) was 795.82 ± 0.42 kg/m3 and the mass density (298.15 K, 210 kPa, m1 = 0.1049) was 789.29 ± 0.42 kg/m3. For the same compound, the mass density (298.15 K, 210 kPa, m1 = 1.222) was 823.5 ± 0.41 kg/m3, the mass density (298.15 K, 250 kPa, m1 = 0.5873) was 804.88 ± 0.42 kg/m3 and the mass density (298.15 K, 410 kPa, m1 = 2.022) was 845.2 ± 0.41 kg/m3. For the same compound, the mass density (298.15 K, 5040 kPa, m1 = 0.3023) was 799.96 ± 0.43 kg/m3, the mass density (298.15 K, 5040 kPa, m1 = 2.88) was 869.78 ± 0.42 kg/m3 and the mass density (298.15 K, 5120 kPa, m1 = 0.1049) was 793.51 ± 0.43 kg/m3. It also gave a mass density (298.15 K, 5230 kPa, m1 = 2.022) of 849.07 ± 0.42 kg/m3, a mass density (298.15 K, 5470 kPa, m1 = 1.222) of 827.84 ± 0.42 kg/m3 and a mass density (298.15 K, 5520 kPa, m1 = 0.5873) of 809.31 ± 0.43 kg/m3. It also gave a mass density (298.15 K, 9820 kPa, m1 = 1.222) of 831.28 ± 0.43 kg/m3, a mass density (298.15 K, 10030 kPa, m1 = 0.1049) of 797.57 ± 0.44 kg/m3 and a mass density (298.15 K, 10050 kPa, m1 = 2.022) of 852.76 ± 0.43 kg/m3. The mass density (298.15 K, 10240 kPa, m1 = 0.3023) was 804.22 ± 0.44 kg/m3, the mass density (298.15 K, 10320 kPa, m1 = 2.88) was 873.67 ± 0.42 kg/m3 and the mass density (298.15 K, 10440 kPa, m1 = 0.5873) was 813.28 ± 0.44 kg/m3. It also gave a mass density (298.15 K, 14990 kPa, m1 = 1.222) of 835.2 ± 0.44 kg/m3, a mass density (298.15 K, 15030 kPa, m1 = 2.022) of 856.4 ± 0.43 kg/m3 and a mass density (298.15 K, 15170 kPa, m1 = 0.5873) of 816.95 ± 0.45 kg/m3. The mass density (298.15 K, 15240 kPa, m1 = 0.1049) was 801.71 ± 0.45 kg/m3, the mass density (298.15 K, 15620 kPa, m1 = 0.3023) was 808.44 ± 0.45 kg/m3 and the mass density (298.15 K, 15640 kPa, m1 = 2.88) was 877.37 ± 0.43 kg/m3. The mass density (298.15 K, 19040 kPa, m1 = 1.222) was 838.14 ± 0.45 kg/m3, the mass density (298.15 K, 19250 kPa, m1 = 0.5873) was 819.98 ± 0.46 kg/m3 and the mass density (298.15 K, 20050 kPa, m1 = 0.3023) was 811.77 ± 0.47 kg/m3. For the same compound, the mass density (298.15 K, 20060 kPa, m1 = 0.1049) was 805.39 ± 0.47 kg/m3, the mass density (298.15 K, 20120 kPa, m1 = 2.022) was 859.94 ± 0.44 kg/m3 and the mass density (298.15 K, 20610 kPa, m1 = 2.88) was 880.65 ± 0.43 kg/m3. For the same compound, the mass density (298.15 K, 25080 kPa, m1 = 2.88) was 883.43 ± 0.44 kg/m3, the mass density (298.15 K, 25410 kPa, m1 = 0.1049) was 809.29 ± 0.49 kg/m3 and the mass density (298.15 K, 25460 kPa, m1 = 1.222) was 842.57 ± 0.46 kg/m3. For the same compound, the mass density (298.15 K, 25610 kPa, m1 = 2.022) was 863.54 ± 0.45 kg/m3, the mass density (298.15 K, 25640 kPa, m1 = 0.5873) was 824.52 ± 0.48 kg/m3 and the mass density (298.15 K, 25840 kPa, m1 = 0.3023) was 815.92 ± 0.48 kg/m3. It also gave a mass density (298.15 K, 30060 kPa, m1 = 0.1049) of 812.53 ± 0.5 kg/m3, a mass density (298.15 K, 30080 kPa, m1 = 2.022) of 866.32 ± 0.46 kg/m3 and a mass density (298.15 K, 30110 kPa, m1 = 0.5873) of 827.53 ± 0.49 kg/m3. For the same compound, the mass density (298.15 K, 30190 kPa, m1 = 1.222) was 845.65 ± 0.48 kg/m3, the mass density (298.15 K, 30410 kPa, m1 = 2.88) was 886.56 ± 0.45 kg/m3 and the mass density (298.15 K, 30560 kPa, m1 = 0.3023) was 819.15 ± 0.5 kg/m3. It also gave a mass density (298.15 K, 35090 kPa, m1 = 2.88) of 889.13 ± 0.46 kg/m3, a mass density (298.15 K, 35410 kPa, m1 = 2.022) of 869.43 ± 0.47 kg/m3 and a mass density (298.15 K, 35560 kPa, m1 = 0.5873) of 831.01 ± 0.51 kg/m3. It also gave a mass density (298.15 K, 35710 kPa, m1 = 0.1049) of 816.28 ± 0.52 kg/m3, a mass density (298.15 K, 35840 kPa, m1 = 0.3023) of 822.58 ± 0.52 kg/m3 and a mass density (298.15 K, 35870 kPa, m1 = 1.222) of 849.13 ± 0.49 kg/m3. It also gave a mass density (298.15 K, 39820 kPa, m1 = 0.5873) of 833.6 ± 0.52 kg/m3, a mass density (298.15 K, 39910 kPa, m1 = 0.3023) of 825.1 ± 0.53 kg/m3 and a mass density (298.15 K, 39940 kPa, m1 = 2.022) of 871.92 ± 0.48 kg/m3. It also gave a mass density (298.15 K, 39980 kPa, m1 = 0.1049) of 818.97 ± 0.54 kg/m3, a mass density (298.15 K, 39980 kPa, m1 = 2.88) of 891.64 ± 0.46 kg/m3 and a mass density (298.15 K, 40070 kPa, m1 = 1.222) of 851.57 ± 0.5 kg/m3. It also gave a mass density (323.15 K, 120 kPa, m1 = 0.1049) of 767.47 ± 0.42 kg/m3, a mass density (323.15 K, 140 kPa, m1 = 0.3023) of 774.35 ± 0.42 kg/m3 and a mass density (323.15 K, 180 kPa, m1 = 2.88) of 845.88 ± 0.41 kg/m3. The mass density (323.15 K, 230 kPa, m1 = 2.022) was 824.57 ± 0.41 kg/m3, the mass density (323.15 K, 240 kPa, m1 = 0.5873) was 783.81 ± 0.42 kg/m3 and the mass density (323.15 K, 410 kPa, m1 = 1.222) was 802.86 ± 0.42 kg/m3. For the same compound, the mass density (323.15 K, 5030 kPa, m1 = 0.5873) was 788.42 ± 0.43 kg/m3, the mass density (323.15 K, 5070 kPa, m1 = 1.222) was 807.19 ± 0.43 kg/m3 and the mass density (323.15 K, 5140 kPa, m1 = 0.1049) was 772.47 ± 0.43 kg/m3. For the same compound, the mass density (323.15 K, 5210 kPa, m1 = 0.3023) was 779.31 ± 0.43 kg/m3, the mass density (323.15 K, 5410 kPa, m1 = 2.022) was 829.25 ± 0.42 kg/m3 and the mass density (323.15 K, 5410 kPa, m1 = 2.88) was 850.34 ± 0.42 kg/m3. It also gave a mass density (323.15 K, 10020 kPa, m1 = 0.1049) of 777.11 ± 0.45 kg/m3.
